# Data taken from article PMC8880564, “Design, Synthesis, and Biological Evaluation of a Novel VEGFR-2 Inhibitor Based on a 1,2,5-Oxadiazole-2-Oxide Scaffold with MAPK Signaling Pathway Inhibition” (Pharmaceuticals, 2022).
# Tests used:
# [1] = test system: SKOV-3; assay: MTT cell viability assay; assay type: cell-based; conditions: Homo sapiens, SK-OV-3, Ovarian, 48 h, ± SD of triplicates
# Experimental: (§1) In addition, the morphological changes in 12b-treated cancer cell lines at concentrations of 6.25 and 12.50 µM are shown in Figure 6.
# (§2) According to the procedures of Skehan et al. (with minor modifications), the cancer or normal cells were seeded in a 96-well plate (100 µL/well). After overnight incubation at 37 °C and 5% CO2, the cells were incubated with 50 µM of each tested compound or DMSO (0.5% v/v). After 48 h of incubation, MTT (3-(4,5-dimethylthiazoyl)-2,5-diphenyl-tetrazolium bromide) 5 mg/mL Phosphate-Buffered Saline (PBS) was added, and the plate was incubated for 4 h. After that, acidified sodium dodecyl sulfate (SDS) solution (10% SDS containing 0.01N HCl in 1× PBS) was used to solubilize formazan crystals. The absorbance was measured after 14 h of incubation at λ570–630 nm by a Biotek plate reader (Gen5™).
# [2] = test system: A2780; assay: MTT cell viability assay; assay type: cell-based; conditions: Homo sapiens, Ovarian, 48 h, ± SD of triplicates
# Experimental: as §1, §2
# [3] = test system: A2780CP; assay: MTT cell viability assay; assay type: cell-based; conditions: Homo sapiens, A2780C/P, Ovarian, 48 h, ± SD of triplicates
# Experimental: as §1, §2
# [4] = test system: MCF-7; assay: MTT cell viability assay; assay type: cell-based; conditions: Homo sapiens, MCF7, Breast, 48 h, ± SD of triplicates
# Experimental: as §1, §2
# [5] = test system: HT-29; assay: MTT cell viability assay; assay type: cell-based; conditions: Homo sapiens, Colon, 48 h, ± SD of triplicates
# Experimental: as §1, §2
# [6] = test system: HepG2; assay: MTT cell viability assay; assay type: cell-based; conditions: Homo sapiens, Liver, 48 h, ± SD of triplicates
# Experimental: as §1, §2
# [7] = test system: MDA-MB-231; assay: MTT cell viability assay; assay type: cell-based; conditions: Homo sapiens, Breast, 48 h, ± SD of triplicates
# Experimental: as §1, §2
# [8] = test system: HepG2 cells; assay: Apoptosis analysis, Annexin-V/PI flow cytometry; assay type: cell-based, human; conditions: HepG2, 5.5 or 11 µM, 24 h
# Experimental: The mechanism of action of 12b was investigated by evaluating its effectiveness in modulating the cell cycle and induction of apoptosis.
# Briefly, HepG2 cells (10^6 cells/mL) were treated either with 12b (5.5 or 11 µM) or with DMSO for 24 h, and then were collected after trypsinization and washed twice with 1× PBS. The induction of apoptosis was analyzed by staining cells with PE-Annexin-V [85] in the presence of PI and analyzed using the BD FACS Calibur Flow cytometer.
# [9] = test system: total ERK; assay: Western blot analysis in HepG2 cells; assay type: cell-based, human; conditions: HepG2, 48 h
# Experimental: (§3) The mitogen-activated protein kinase (MAPK) pathway is considered to be a key player in the gene expression of survival, proliferative, and anti-apoptotic proteins. Aberrant dysregulation in the MAPK pathway activity has been linked to the overall poor prognosis in various cancers. […] Additionally, compound 12b was further tested against p38, MKK3, and JNK using ELISA assay protocols at a concentration of 11 µM. […] The overexpression of JNK might have contributed to the NO released from 12b and reactive oxygen species (ROS). In summary, the novel anticancer lead compound 12b is worthy of further investigation and activity improvement.
# (§4) The cells were seeded (2.5 × 10^5 cells/mL) and treated as described above. After 48 h of incubation with compound 12b, cells were lysed by RIPA buffer containing 1x protease and phosphatase inhibitor cocktail (Thermo Scientific™, Waltham, MA, USA). The supernatant was collected after centrifugation at 4 °C and the Pierce BCA Protein Assay Kit (Thermo Scientific™, 23225, Waltham, MA, USA) was used for protein concentration detection. Proteins were then separated using SDS-PAGE at 100 V for 45 min. After that, the proteins were transferred to a nitrocellulose membrane. The membrane was subjected to a suitable primary antibody overnight. Then, an appropriate HRP-conjugated secondary antibody was used. GAPDH was used as a loading control. The membrane was developed using WesternBright® ECL (Advansta Inc., K-12045-D20, San Jose, CA, USA), and the signal was detected using ChemiDoc XRS^+ (1708265, Bio-Rad Laboratories, Hercules, CA, USA).
# [10] = test system: p27; assay: Western blot analysis in HepG2 cells; assay type: cell-based, human; conditions: HepG2, 48 h
# Experimental: as §3, §4
# [11] = test system: p53; assay: Western blot analysis in HepG2 cells; assay type: cell-based, human; conditions: HepG2, 48 h
# Experimental: as §3, §4
# [12] = test system: p21; assay: Western blot analysis in HepG2 cells; assay type: cell-based, human; conditions: HepG2, 48 h
# Experimental: as §3, §4
# [13] = test system: pERK; assay: Western blot analysis in HepG2 cells; assay type: cell-based, human; conditions: HepG2, 48 h
# Experimental: as §3, §4
# [14] = test system: MMP-9; assay: Western blot analysis in HepG2 cells; assay type: cell-based, human; conditions: HepG2, 48 h
# Experimental: as §3, §4
# [15] = test system: HepG2 cells; assay: Intracellular measurement of NO by DAF-FM diacetate flow cytometry; assay type: cell-based, human; conditions: HepG2, 11 µM, 1 h, DAF-FM DA; DMSO 0.1%
# Experimental: The NO-releasing properties of 12b were evaluated by measuring the level of intracellular NO by flow cytometry, using a cell-permeable and photo-stable NO fluorescent indicator, 3-Amino-4-aminomethyl-2’,7’-difluorofluorescein diacetate (DAF-FM DA), with a detection limit of ~3 nM. DAF-FM diacetate penetrates the cells and is deacetylated by esterase enzyme to yield a non-fluorescent dye, DAF-FM, which, upon reaction with NO, produces a fluorescent benzotriazole product. Compound 12b was efficiently able to increase the production of NO in the treated cells (9.9% vs. 0.1% in DMSO-treated cells; Figure 9). Furthermore, compound 12b increased NO production as efficiently as the positive control reference drug JS-k.
# HepG2 cells were collected, and the number was adjusted at 10^6 cells/test, and then they were stained with 5 µM DAF-FM™ diacetate (Invitrogen, Cat. No. D-23844) for 60 min at 37 °C and 5% CO2. After that, the stained cells were washed to remove the excess probe, and then were re-incubated for another 30 min. Following that, the stained cells were treated either with 12b (5.5 or 11 µM) or JS-K as a positive nitric oxide donor or DMSO as a negative control for another 1 h. The fluorescence was detected by flow cytometry using the FITC detection system in a BD flow Cytometer.
smiles,measurement,setting,value
"[O-][n+]1onc(-c2ccccc2)c1CNc1ccc(Nc2nc(C(F)(F)F)nc3c2cnn3-c2ccc(Br)cc2)cc1 [12b, 3-(((4-((1-(4-bromophenyl)-6-(trifluoromethyl)-1H-pyrazolo[3,4-d]pyrimidin-4-yl)amino)phenyl)amino)methyl)-4-phenyl-1,2,5-oxadiazole 2-oxide]",IC50,[1],18.6 ± 0.2 µM
same,IC50,[2],15 ± 0.15 µM
same,IC50,[3],11.6 ± 0.1 µM
same,IC50,[4],22.3 ± 0.3 µM
same,IC50,[5],15 ± 0.24 µM
same,IC50,[6],11.5 ± 0.5 µM
same,IC50,[7],13 ± 0.2 µM
same,induction of apoptosis,[8],induction of apoptotic pathways
same,level of total ERK,[9],decreased the level
same,expression of p27,[10],over-expression
same,expression of p53,[11],slight increase in the expression
same,expression of p21,[12],over-expression
same,level of phosphorylated ERK,[13],decreased the level
same,expression of metalloproteinase MMP-9,[14],downregulation
same,intracellular NO production (P2),[15],9.9%
